Experimental data from patent US20080261811A1, “Synergistic Mixtures Exhibiting Insecticidal and Fungicidal Action” (Bayer CropScience AG, priority 2004, published 2008).

Legend:
Phaedon cochleariae = Phaedon cochleariae larvae test (cabbage leaf dip); assay type: in vivo; settings: for Kill in % after 6 days: Table B2; for Kill in % after 4 days: Table B1
From the text: (§1) The expected activity for a given combination of two active compounds can be calculated (cf. COLBY, S. R.; “Calculating Synergistic and Antagonistic Responses of Herbicide Combinations”, Weeds 15, pages 20-22, 1967):
(§2) if • X=the kill rate, expressed in % of the untreated control, when employing active compound A at an application rate of m ppm, • Y=the kill rate, expressed in % of the untreated control, when employing active compound B at an application rate of n ppm, • E=the kill rate, expressed in % of the untreated control, when employing active compounds A and B at application rates of m and n ppm, then
(§3) If the actual insecticidal kill rate is higher than the calculated one, the kill rates of the combination are superadditive, i.e. a synergistic effect is present. In this case, the kill rate that is actually observed has to be higher than the value, calculated using the formula above, for the expected kill rate (E).
(§4) To produce a suitable preparation of active compound, 1 part by weight of active compound is mixed with the stated amounts of solvent and emulsifier, and the concentrate is diluted with emulsifier-containing water to the desired concentration.
Cabbage leaves (Brassica oleracea) are treated by being dipped into the preparation of active compound of the desired concentration and populated with larvae of the mustard beetle (Phaedon cochleariae) while the leaves are still moist.
After the desired period of time, the kill in % is determined. 100% means that all beetle larvae have been killed; 0% means that none of the beetle larvae have been killed. The determined kill rates are entered into Colby's formula.

Myzus persicae = Myzus persicae test (cabbage leaf dip); assay type: in vivo; settings: for Kill in % after 1 day: Table A1; for Kill in % after 6 days: Table A2
From the text: as §1, §2, §3, §4
Cabbage leaves (Brassica oleracea) which are heavily infested by the green peach aphid (Myzus persicae) are treated by being dipped into the preparation of active compound of the desired concentration.
After the desired period of time, the kill in % is determined. 100% means that all aphids have been killed; 0% means that none of the aphids have been killed. The determined kill rates are entered into Colby's formula.

`COC(=O)C(C)N(C(=O)Cc1ccccc1)c1c(C)cccc1C` (stereo not shown) [benalaxyl] was tested, and the “Kill in % after 6 days” value (Phaedon cochleariae; 500 ppm) was 0%.

With `COCC(=O)N(c1c(C)cccc1C)C(C)C(=O)OC` (stereo not shown) [metalaxyl] the “Kill in % after 1 day” value (Myzus persicae; 500 ppm) was 0%.

`COCC(=O)N(c1c(C)cccc1C)[C@H](C)C(=O)OC` [metalaxyl M] was tested, and the “Kill in % after 1 day” value (Myzus persicae; 500 ppm) was 0% and the “Kill in % after 4 days” value (Phaedon cochleariae; 500 ppm) was 0%.

`CN/C(=N\[N+](=O)[O-])NCc1cnc(Cl)s1` [clothianidin] was tested, and the “Kill in % after 1 day” value (Myzus persicae; 0.8 ppm) was 45%, the “Kill in % after 6 days” value (Myzus persicae; 0.8 ppm) was 35% and the “Kill in % after 4 days” value (Phaedon cochleariae; 4 ppm) was 40%. For the same molecule, the “Kill in % after 6 days” value (Phaedon cochleariae; 4 ppm) was 60%.

`COC(=O)[C@@H](C)N(C(=O)Cc1ccccc1)c1c(C)cccc1C` [benalaxyl M, methyl N-(phenylacetyl)-N-(2,6-xylyl)-D-alaninate] was tested, and the “Kill in % after 6 days” value (Myzus persicae; 500 ppm) was 0% and the “Kill in % after 6 days” value (Phaedon cochleariae; 500 ppm) was 0%.
